From paper PMC6727188, “Image-Based Investigation: Biorelevant Solubility of α and γ Indomethacin” (Analytical Chemistry, 2019)
In brackets after ≈: the same amount, converted by molar mass.

How the values were obtained:
physchem = type: physicochemical; conditions: for solubility: thermodynamic from solid, Shake-flask solubility
Procedure: The solubilities of α and γ indomethacin were measured by the conventional shake-flask method in HCl (pH 1.6), FaSSGFblk, and FeSSIFblk. A detailed description of the methodology can be found in the Supporting Information on page S-2.
Effect of particle morphology on the solubility values measured by the SPA method was assessed by the
MatLab® regionprops toolbox. Three morphology-describing parameters were extracted; namely:
eccentricity, major axis length and minor axis length. The morphology parameters were then plotted against
solubility values of individual particles (Figure S1 and Figure S2). No specific effect of particle morphology
on solubility, in the size range studied (5-25 µm), was found.
Shake-flask solubility measurements
Indomethacin α and γ samples were placed in excess amount into vials. The vials were filled with HCl,
FaSSGFblk and FeSSIFblk media and left to stir on a rotating machine. This procedure was repeated in
triplicate for both solid-state forms and the three media. After 24h, 48h and 72h samples of 2 mL were
extracted and filtered (Whatman™ PVDF 13 mm with 0.45 µm pore size). After filtration, the samples of α
indomethacin were diluted four times with the corresponding medium […]
The drug concentration in the samples was determined using an Agilent High Performance Liquid
Chromatography (HPLC) 1260 system (Agilent Technologies, Germany). The Phenomenex Gemini NX-
C18, 3 µm, 100 x 4.6 mm column (Phenomenex, Torrance, CA) was used in the assays. The temperature of
the column was set to 30°C. Mobile phase used was 0.2% H3PO4:Acetonitrile (40:60, v:v) with flow rate of
1.5 mL/min. Injection volume was 20 µL and total run time 5 min. Detection was preformed at 270 nm.
Standard solutions of indomethacin in MilliQ:Ethanol (50:50, v:v) were prepared and analyzed with HPLC
to construct the calibration curve. All samples were analyzed in triplicate: 0.1, 0.5, 1, 10, 50 and 100 µg/mL
After 72h, the remaining excess solids, from vials were initially α form of indomethacin was placed, were
filtered and dried overnight in a vacuum oven. The next day, the excess solids were analyzed by XRPD and
XRPD diffractograms of the
remaining solids are presented in the Figure S3 and DSC thermograms in the Figure S4.
When comparing the shake-flask solubility values to the SPA solubility values, they are in the same rank
order and within the generally accepted interlaboratory variance, 0.6 log units.32 Moreover, a slight shift of
XRPD peaks to the left and appearance of a small melting peak at 159.3°C ± 0.1°C in the DSC thermograms
of the remaining excess solid samples indicate a presence of γ form (Figure S3 and S4). The presence of γ
form, in vials were initially pure α form was placed, would result in lower solubility ratio of α to γ solubility
measured by shake-flask method (1.7 ± 0.4) when compared to the ratio obtained by the SPA method (3.3 ±
0.5). With the SPA method, the actual solubility of the metastable α form was measured before any possible
solid-state transformation occurred that could affect the measurement. This was achieved by starting the
measurement as soon as the solvent came in contact with the sample and also by maintaining the sink
conditions in the flow-through cell.

[1] = Estimation of the free-energy difference between polymorphs from DSC melting data; type: physicochemical; conditions: estimated from DSC melting data, extrapolated to room temperature
Procedure: DSC experiments were performed using a DSC823e (Mettler-Toledo, Greifensee, Switzerland) equipped with a refrigerated cooling system (Julabo FT 900, Seelbach, Germany). Nitrogen was used as a purge gas (50 mL/min).
Samples (2–5 mg) were tightly packed into standard aluminum crucibles (40 μL) with pierced lids. Two different procedures were used in these measurements. For determination of melting temperature and enthalpy, the samples were equilibrated at 25 °C for 3 min and then linearly heated with a heating rate of 10 °C/min to 180 °C. For determination of heat capacities, the samples were equilibrated at 140 °C and then heated up to 180 °C using a TOPEM-modulated heating program with a heating rate of 1 °C/min and a pulse height of 1 °C. Samples were measured in triplicate, and thermal events were analyzed using STARe software (Mettler-Toledo, Greifensee, Switzerland). Temperatures of melting, enthalpies of melting, and heat capacities were used to estimate the free-energy difference between the α and γ polymorphs.
The free-energy difference between two polymorphs can be estimated from their melting data or their respective solubility values. […]

[2] = Image-based single-particle-analysis (SPA) solubility measurement in a flow-through setup; type: physicochemical; conditions: for solubility ratio (RS) FaSSGF/FaSSGFblk / solubility ratio (RS) FaSSGF/HCl / solubility ratio (RS) FaSSGFblk/HCl / solubility ratio (RS) FeSSIF/FeSSIFblk: same solid-state form in different media
Procedure: Dissolution experiments utilizing the SPA method were performed using a custom-made flow-through setup (Figure 1). The experiments were conducted at room temperature (22 °C) rather than at 37 °C in order to ensure controlled experimental conditions. The setup enables the trapping of particles under constant-flow conditions. In this way, dissolved molecules are continuously extracted from the chamber, and sink conditions are maintained. As the measurement can be started as soon as the solvent comes in contact with the entrapped particles, the actual solubility of a metastable form can be measured before any possible solid-state transformation occurs that could affect the solubility. In eq 1, at sink conditions, bulk concentration (Cb) can be disregarded because it is practically zero. This means the dissolution rate (dm/dt) is dependent only on the equilibrium solubility at the interface (CS); k is the setup-dependent transport-rate constant determined as described by Svanbäck.[20] [drawing 1] 1 For a single measurement, approximately 10 mL of dissolution medium and less than 0.1 mg of sample were used. Online images were acquired over 15 min through the transparent part of the flow-through chamber using a USB microscope (Gigastone S1-100, Irvine, CA). At least five particles per solid-state form per medium were measured. For the analysis of the image data, a MatLab script was previously developed by Svanbäck and co-workers.[20],[22] The script enables quantification of the particle’s morphology change (i.e., dissolution rate) and, consequently, calculation of the solubility according to eq 1.

[3] = parameters: method as in ref 9 (Hancock et al.); conditions: 200 mL deionized water, 45 °C; ref 9 (Hancock et al.); cited from earlier work
[4] = parameters: method as in ref 15 (Fagerberg and co-workers); conditions: 37 °C, μDISS profiler; ref 15 (Fagerberg and co-workers); cited from earlier work
[5] = SPA method, FaSSGF pH 1.6, 22 °C
[6] = SPA method, FaSSGFblk (blank FaSSGF) pH 1.6, 22 °C
[7] = SPA method, FeSSIF pH 5.0, 22 °C
[8] = SPA method, FeSSIFblk (blank FeSSIF) pH 5.0, 22 °C

solubility [2, 5]	solubility [2, 6]	solubility [2, 7]	solubility [2, 8]	solubility ratio (RS) FaSSGF/FaSSGFblk ([2]; SPA method)	solubility ratio (RS) FaSSGF/HCl ([2]; SPA method)	solubility ratio (RS) FaSSGFblk/HCl ([2]; SPA method)	solubility ratio (RS) FeSSIF/FeSSIFblk ([2]; SPA method)	Compound	also measured
0.29 ± 0.16 µg/mL (≈ 0.811 µM)	0.14 ± 0.09 µg/mL (≈ 0.391 µM)	15.7 ± 10.4 µg/mL (≈ 43.9 µM)	2.79 ± 1.67 µg/mL (≈ 7.8 µM)	2.1	0.9	0.4	5.6	COc1ccc2c(c1)c(CC(=O)O)c(C)n2C(=O)c1ccc(Cl)cc1 [α form, indomethacin]	free-energy difference ΔG between the α and γ polymorphs (physchem): 0.311 kcal/mol; ratio of α- to γ-solid-state-form solubility (physchem): 1.7 ± 0.4; solubility (physchem; pH 1.6, fassgf or other biorelevant): 0.5 ± 0.2 µg/mL (≈ 1.4 µM); solubility (physchem; pH 1.6, simulated gastric fluid): 0.6 ± 0.1 µg/mL (≈ 1.68 µM); solubility (physchem; pH 5, fassgf or other biorelevant): 9 ± 0.2 µg/mL (≈ 25.2 µM); free-energy difference ΔG between the α and γ polymorphs [1]: 12 ± 7 J/g; solubility ([2]; SPA method, HCl pH 1.6, 22 °C): 0.34 ± 0.20 µg/mL (≈ 0.95 µM); ratio of α- to γ-solid-state-form solubility ([2]; SPA method, constant in all studied media (HCl, FaSSGFblk, FaSSGF, FeSSIFblk, FeSSIF)): 3.3 ± 0.5; free-energy difference ΔG between the α and γ polymorphs ([2]; from the SPA solubility ratios, molar units): 0.693 kcal/mol; free-energy difference ΔG between the α and γ polymorphs ([2]; from the α- to γ-solubility ratio obtained with the SPA method (eq 7), ambient temperature): 8 ± 1 J/g; α- to γ-solubility ratio [3]: 1.1
0.10 ± 0.02 µg/mL (≈ 0.279 µM)	0.04 ± 0.03 µg/mL (≈ 0.112 µM)	3.80 ± 1.74 µg/mL (≈ 10.6 µM)	0.94 ± 0.58 µg/mL (≈ 2.63 µM)	2.5	1.0	0.4	4.0	COc1ccc2c(c1)c(CC(=O)O)c(C)n2C(=O)c1ccc(Cl)cc1 [γ form, indomethacin]	Shake-flask solubility (physchem; pH 1.6): 0.3 ± 0.1 µg/mL; Shake-flask solubility (physchem; pH 5): 6.4 ± 0.1 µg/mL; fold increase in solubility from FeSSIFblk to FeSSIF [4]: 7.3 fold; solubility ([2]; SPA method, HCl pH 1.6, 22 °C, listed as Indomethacin γ): 0.10 ± 0.05 µg/mL (≈ 0.279 µM)
